Experimental findings from patent publication US11324749B2, “Combination therapy for treatment of hematological diseases” (Incyte Corporation, priority 2018, dated 2022) are described below.

For assay [1], the target named is human JAK1 (a.a. 837-1142) (Homo sapiens, UniProt P23458). Kind of assay: In vitro JAK kinase assay (HTRF), JAK1. The format is biochemical. The settings on record: 1 mM ATP.
Procedure: (§1) The catalytic activity of JAK1, JAK2, or JAK3 was assayed by measuring the phosphorylation of a biotinylated peptide. The phosphorylated peptide was detected by homogenous time resolved fluorescence (HTRF). […] Reactions are carried out at room temperature for 1 hour and then stopped with 20 μL 45 mM EDTA, 300 nM SA-APC, 6 nM Eu-Py20 in assay buffer (Perkin Elmer, Boston, Mass.). Binding to the Europium labeled antibody takes place for 40 minutes and HTRF signal was measured on a Fusion plate reader (Perkin Elmer, Boston, Mass.).
For assay [2], the target named is human JAK2 (a.a. 828-1132) (Homo sapiens (Human), UniProt O60674). Kind of assay: In vitro JAK kinase assay (HTRF), JAK2 versus JAK1. The format is biochemical. The following applies: IC50 ratio, 1 mM ATP.
Chain of human JAK2 (a.a. 828-1132) (O60674 828-1132): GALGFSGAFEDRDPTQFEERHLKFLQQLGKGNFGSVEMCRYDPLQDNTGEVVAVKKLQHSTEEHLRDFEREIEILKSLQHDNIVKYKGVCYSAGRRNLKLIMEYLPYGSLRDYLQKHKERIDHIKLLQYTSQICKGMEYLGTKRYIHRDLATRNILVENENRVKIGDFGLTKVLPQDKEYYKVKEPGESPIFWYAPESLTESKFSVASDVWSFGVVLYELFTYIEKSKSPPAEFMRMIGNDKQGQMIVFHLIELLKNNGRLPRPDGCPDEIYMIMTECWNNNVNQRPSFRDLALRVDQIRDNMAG
Procedure: as §1

In assay [1], `CCNCc1cc(O[C@H]2CC[C@@H](N3CC(CC#N)(n4cc(-c5ncnc6[nH]ccc56)cn4)C3)CC2)nc(C(F)(F)F)c1` [Compound 19, {1-(cis--4{[4-[(ethylamino)methyl]-6-(trifluoromethyl)pyridin-2-yl]oxy}cyclohexyl)-3-[4-(7H-pyrrolo[2,3-d]pyrimidin-4-yl)-1H-pyrazol-1-yl]azetidin-3-yl}acetonitrile] returned a concentration for half-maximal inhibition (IC50) below 10 nM. Besides, in assay [2], the JAK2/JAK1 is given as above 10.
`N#CCC(CN1CCN(C(=O)c2ccc(C#N)cc2F)CC1)n1cc(-c2ncnc3[nH]ccc23)cn1` (stereo not drawn) [Compound 8, 4-[(4-{3-cyano-2-[4-(7H-pyrrolo[2,3-d]pyrimidin-4-yl)-1H-pyrazol-1-yl]propyl}piperazin-1-yl)carbonyl]-3-fluorobenzonitrile]: the IC50 in assay [1] is below 10 nM. For the same compound, the JAK2/JAK1 in assay [2] is on record as above 10.
`N#CC[C@]1(n2cc(-c3ncnc4[nH]ccc34)cn2)C[C@H](N2CCC(Oc3cc(CN4CCC[C@H]4CO)cc(C(F)(F)F)n3)CC2)C1` [Compound 12, {trans-3-(4-{[4-{[(2S)-2-(hydroxymethyl)pyrrolidin-1-yl]methyl}-6-(trifluoromethyl)pyridin-2-yl]oxy}piperidin-1-yl)-1-[4-(7H-pyrrolo[2,3-d]pyrimidin-4-yl)-1H-pyrazol-1-yl]cyclobutyl}acetonitrile]: in assay [1], the IC50 is below 10 nM. Besides, the JAK2/JAK1 in assay [2] is given as above 10.
Compound `C[C@@H](CO)NCc1cc(OC2CCN([C@H]3C[C@](CC#N)(n4cc(-c5ncnc6[nH]ccc56)cn4)C3)CC2)nc(C(F)(F)F)c1` [Compound 23, {trans-3-(4-{[4-({[(1S)-2-hydroxy-1-methylethyl]amino}methyl)-6-(trifluoromethyl)pyridin-2-yl]oxy}piperidin-1-yl)-1-[4-(7H-pyrrolo[2,3-d]pyrimidin-4-yl)-1H-pyrazol-1-yl]cyclobutyl}acetonitrile] yielded an IC50 in assay [1] below 10 nM. In addition, in assay [2], the JAK2/JAK1 was above 10.
For `N#CCC1(n2cc(-c3ncnc4[nH]ccc34)cn2)CN(C2CCN(C(=O)c3ccnc(C(F)(F)F)n3)CC2)C1` [Compound 3, [3-[4-(7H-pyrrolo[2,3-d]pyrimidin-4-yl)-1H-pyrazol-1-yl]-1-(1-{[2-(trifluoromethyl)pyrimidin-4-yl]carbonyl}piperidin-4-yl)azetidin-3-yl]acetonitrile] the same measures were below 10 nM and above 10.
In the case of `N#CC[C@]1(n2cc(-c3ncnc4[nH]ccc34)cn2)C[C@H](N2CCC(Oc3cc(CN4CCC[C@@H]4CO)cc(C(F)(F)F)n3)CC2)C1` [Compound 13, {trans-3-(4-{[4-{[(2R)-2-(hydroxymethyl)pyrrolidin-1-yl]methyl}-6-(trifluoromethyl)pyridin-2-yl]oxy}piperidin-1-yl)-1-[4-(7H-pyrrolo[2,3-d]pyrimidin-4-yl)-1H-pyrazol-1-yl]cyclobutyl}acetonitrile], in assay [1], the IC50 was below 10 nM. For the same compound, the JAK2/JAK1 in assay [2] is on record as above 10.
The compound `C[C@H](O)CNCc1cc(OC2CCN([C@H]3C[C@](CC#N)(n4cc(-c5ncnc6[nH]ccc56)cn4)C3)CC2)nc(C(F)(F)F)c1` [Compound 25, {trans-3-(4-{[4-({[(2S)-2-hydroxypropyl]amino}methyl)-6-(trifluoromethyl)pyridin-2-yl]oxy}piperidin-1-yl)-1-[4-(7H-pyrrolo[2,3-d]pyrimidin-4-yl)-1H-pyrazol-1-yl]cyclobutyl}acetonitrile] displayed an IC50 in assay [1] below 10 nM. In addition, the JAK2/JAK1 in assay [2] is reported as above 10.
For the compound `N#CCC1(n2cc(-c3ncnc4[nH]ccc34)cn2)CN([C@H]2CC[C@@H](Oc3cc(CCO)nc(C(F)(F)F)n3)CC2)C1` [Compound 18, {1-(cis-4-{[6-(2-hydroxyethyl)-2-(trifluoromethyl)pyrimidin-4-yl]oxy}cyclohexyl)-3-[4-(7H-pyrrolo[2,3-d]pyrimidin-4-yl)-1H-pyrazol-1-yl]azetidin-3-yl}acetonitrile], the IC50 in assay [1] is below 10 nM. Further, the JAK2/JAK1 in assay [2] is above 10.
For `N#CC[C@]1(n2cc(-c3ncnc4[nH]ccc34)cn2)C[C@H](N2CCN(C(=O)c3ccnc(C(F)(F)F)n3)CC2)C1` [Compound 10, [trans-1-[4-(7H-pyrrolo[2,3-d]pyrimidin-4-yl)-1H-pyrazol-1-yl]-3-(4-{[2-(trifluoromethyl)pyrimidin-4-yl]carbonyl}piperazin-1-yl)cyclobutyl]acetonitrile] the same measures were below 10 nM and above 10.
For `C[C@@H](O)c1nc2cnc3ccsc3c2n1[C@H]1CC[C@H](CC#N)OC1` [Compound 5, ((2R,5S)-5-{2-[(1R)-1-hydroxyethyl]-1H-imidazo[4,5-d]thieno[3,2-b]pyridin-1-yl}tetrahydro-2H-pyran-2-yl)acetonitrile], in assay [1], the IC50 is below 100 nM. Besides, the JAK2/JAK1 in assay [2] is above 10.
`N#CC[C@]1(n2cc(-c3ncnc4[nH]ccc34)cn2)C[C@H](N2CCC(Oc3cc(CN4CC(O)C4)cc(C(F)(F)F)n3)CC2)C1` [Compound 11, {trans-3-(4-{[4-[(3-hydroxyazetidin-1-yl)methyl]-6-(trifluoromethyl)pyridin-2-yl]oxy}piperidin-1-yl)-1-[4-(7H-pyrrolo[2,3-d]pyrimidin-4-yl)-1H-pyrazol-1-yl]cyclobutyl}acetonitrile] yielded an IC50 in assay [1] below 10 nM. Moreover, the JAK2/JAK1 in assay [2] is on record as above 10.
`N#CCC(CN1CCN(C(=O)c2ccc(C#N)cc2F)CC1)n1ccc(-c2ncnc3[nH]ccc23)c1` (stereo not drawn) [Compound 9, 4-[(4-{3-cyano-2-[3-(7H-pyrrolo[2,3-d]pyrimidin-4-yl)-1H-pyrrol-1-yl]propyl}piperazin-1-yl)carbonyl]-3-fluorobenzonitrile] returned an IC50 in assay [1] below 10 nM. For the same compound, the JAK2/JAK1 in assay [2] is recorded as above 10.
In assay [1], `CC(C)(O)c1cc(O[C@H]2CC[C@@H](N3CC(CC#N)(n4cc(-c5ncnc6[nH]ccc56)cn4)C3)CC2)nc(C(F)(F)F)c1` [Compound 20, {1-(cis-4-{[4-(1-hydroxy-1-methylethyl)-6-(trifluoromethyl)pyridin-2-yl]oxy}cyclohexyl)-3-[4-(7H-pyrrolo[2,3-d]pyrimidin-4-yl)-1H-pyrazol-1-yl]azetidin-3-yl}acetonitrile] had an IC50 below 10 nM. For the same compound, in assay [2], the JAK2/JAK1 is on record as above 10.
Take `N#CCC1(n2cc(-c3ncnc4[nH]ccc34)cn2)CN([C@H]2CC[C@@H](Oc3cc(CN4CC[C@@H](O)C4)cc(C(F)(F)F)n3)CC2)C1` [Compound 21, {1-(cis-4-{[4-{[(3R)-3-hydroxypyrrolidin-1-yl]methyl}-6-(trifluoromethyl)pyridin-2-yl]oxy}cyclohexyl)-3-[4-(7H-pyrrolo[2,3-d]pyrimidin-4-yl)-1H-pyrazol-1-yl]azetidin-3-yl}acetonitrile]: in assay [1], the IC50 was below 10 nM. In addition, the JAK2/JAK1 in assay [2] is recorded as above 10.
`N#CCC1(n2cc(-c3ncnc4[nH]ccc34)cn2)CN(C2CCN(C(=O)Nc3ccc(F)cc3C(F)(F)F)CC2)C1` [Compound 2, 4-{3-(Cyanomethyl)-3-[4-(7H-pyrrolo[2,3-d]pyrimidin-4-yl)-1H-pyrazol-1-yl]azetidin-1-yl}-N-[4-fluoro-2-(trifluoromethyl)phenyl] piperidine-1-carboxamide]: the IC50 in assay [1] was below 10 nM. Moreover, in assay [2], the JAK2/JAK1 is above 10.
In assay [1], `N#CCC(C1CCN(c2cccc(Cl)n2)C1)n1cc(-c2ncnc3[nH]ccc23)cn1` (single isomer, unassigned) [Compound 6, 3-[1-(6-chloropyridin-2-yl)pyrrolidin-3-yl]-3-[4-(7H-pyrrolo[2,3-d]pyrimidin-4-yl)-1H-pyrazol-1-yl]propanenitrile] yielded an IC50 below 10 nM. The JAK2/JAK1 in assay [2] is above 10.
Consider `N#CCC1(n2cc(-c3ncnc4[nH]ccc34)cn2)CN([C@H]2CC[C@@H](Oc3cc(CN4CC[C@H](O)C4)cc(C(F)(F)F)n3)CC2)C1` [Compound 22, {1-(cis-4-{[4-{[(3S)-3-hydroxypyrrolidin-1-yl]methyl}-6-(trifluoromethyl)pyridin-2-yl]oxy}cyclohexyl)-3-[4-(7H-pyrrolo[2,3-d]pyrimidin-4-yl)-1H-pyrazol-1-yl]azetidin-3-yl}acetonitrile], for which the IC50 in assay [1] is below 10 nM. The JAK2/JAK1 in assay [2] is listed as above 10.
Take `C[C@H](NC(=O)c1cc(F)c(N2CC(CC#N)(n3cc(-c4ncnc5[nH]ccc45)cn3)C2)cc1F)C(F)(F)F` [Compound 16, 4-{3-(cyanomethyl)-3-[4-(7H-pyrrolo[2,3-d]pyrimidin-4-yl)-1H-pyrazol-1-yl]azetidin-1-yl}-2,5-difluoro-N-[(1S)-2,2,2-trifluoro-1-methylethyl]benzamide]: the IC50 in assay [1] is below 10 nM. Besides, the JAK2/JAK1 in assay [2] is on record as above 10.
`N#CCC(C1CCN(c2nc3cccnc3o2)C1)n1cc(-c2ncnc3[nH]ccc23)cn1` (stereo not drawn) [Compound 7, 3-(1-[1,3]oxazolo[5,4-b]pyridin-2-ylpyrrolidin-3-yl)-3-[4-(7H-pyrrolo[2,3-d]pyrimidin-4-yl)-1H-pyrazol-1-yl]propanenitrile] had an IC50 in assay [1] below 10 nM. The JAK2/JAK1 in assay [2] is recorded as above 10.
On to `C[C@@H](O)CNCc1cc(OC2CCN([C@H]3C[C@](CC#N)(n4cc(-c5ncnc6[nH]ccc56)cn4)C3)CC2)nc(C(F)(F)F)c1` [Compound 24, {trans-3-(4-{[4-({[(2R)-2-hydroxypropyl]amino}methyl)-6-(trifluoromethyl)pyridin-2-yl]oxy}piperidin-1-yl)-1-[4-(7H-pyrrolo[2,3-d]pyrimidin-4-yl)-1H-pyrazol-1-yl]cyclobutyl}acetonitrile], for which the IC50 in assay [1] was below 10 nM. The JAK2/JAK1 in assay [2] is recorded as above 10.
Consider `N#CC[C@]1(n2cc(-c3ncnc4[nH]ccc34)cn2)C[C@H](N2CCC(Oc3cc(CCO)cc(C(F)(F)F)n3)CC2)C1` [Compound 26, {trans-3-(4-{[4-(2-hydroxyethyl)-6-(trifluoromethyl)pyridin-2-yl]oxy}piperidin-1-yl)-1-[4-(7H-pyrrolo[2,3-d]pyrimidin-4-yl)-1H-pyrazol-1-yl]cyclobutyl}acetonitrile], for which the IC50 in assay [1] is below 10 nM. In addition, the JAK2/JAK1 in assay [2] is above 10.

In general, IC50 refers to the midpoint of a concentration-inhibition curve. Low values mean inhibition by little substance, high ones a need for much substance.
